In doi:10.1101/2023.07.10.548257 (bioRxiv, 2024) one finds EC50 data, which are given here for nine molecules.

Structures are written as SMILES.

As usually defined, the EC50 is the midpoint of the concentration-response curve. Low values mean an effect from little substance, high ones a need for much substance.

The target of the assay is T1, full-length SHP2^WT (Homo sapiens, UniProt Q06124).
T1 construct: Full-length SHP2 constructs were diluted in assay buffer; His6-TEV (N, cleaved yes); made in house; host or cells: E. coli BL21(DE3)
T1 sequence (Q06124 1-593): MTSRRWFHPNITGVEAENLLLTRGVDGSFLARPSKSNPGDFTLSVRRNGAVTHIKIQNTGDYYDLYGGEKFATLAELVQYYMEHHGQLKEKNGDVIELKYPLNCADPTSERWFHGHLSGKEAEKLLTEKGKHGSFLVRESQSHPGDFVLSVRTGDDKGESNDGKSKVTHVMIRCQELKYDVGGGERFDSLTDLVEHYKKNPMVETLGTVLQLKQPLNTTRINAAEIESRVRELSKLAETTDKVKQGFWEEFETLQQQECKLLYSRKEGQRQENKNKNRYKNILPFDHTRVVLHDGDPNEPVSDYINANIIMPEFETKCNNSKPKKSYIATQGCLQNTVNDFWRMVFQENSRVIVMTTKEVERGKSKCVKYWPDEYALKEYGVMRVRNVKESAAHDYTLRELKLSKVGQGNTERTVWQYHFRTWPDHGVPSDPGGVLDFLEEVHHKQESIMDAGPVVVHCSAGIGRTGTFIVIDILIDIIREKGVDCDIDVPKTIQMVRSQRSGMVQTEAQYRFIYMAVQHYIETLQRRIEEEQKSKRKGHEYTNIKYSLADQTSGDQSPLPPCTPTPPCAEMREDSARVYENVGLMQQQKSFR
As to the kind of experiment: SHP2 activation assay using phosphopeptides (DiFMUP), SHP2 WT. Type of assay: biochemical. The conditions noted are these: activation of full-length SHP2 WT (0.05 nM) by phosphopeptide; DiFMUP substrate; 60 mM HEPES pH 7.2, 75 mM KCl, 75 mM NaCl, 1 mM EDTA, 0.05% Tween-20, 0.5 mM TCEP; fluorescence read every 25 s for 6 min; mean of N (column N). The method, then:
SHP2 activation assays using phosphopeptides
Full-length SHP2 constructs were diluted in assay buffer (60 mM HEPES pH 7.2, 75 mM KCl, 75 mM NaCl,1 mM EDTA, 0.05% Tween-20, with 0.5 mM TCEP freshly added) to a 2X concentration of 0.1 nM. Peptides were serially diluted in assay buffer, with the last point of the concentration series fully without peptide. 15 μL of peptide and 15 μL of 800 μM DiFMUP was added to a black 96-well half area plate. Right before starting the plate reader assay, 30 μL SHP2 was added to each well a Supplementary Information - page 4 of 18 […]
final concentration of 0.05nM. Kinetic measurements (Ex 358/Em […]) were taken on a BioTek Neo2 plate reader every 25 seconds for 6 minutes. […]
OD600 reached 0.5. 20 mL of cell suspension was induced at 25 °C using a final concentration of 0.4% arabinose until the OD600 ~ 1 (after approximately 4 hours). The cells were spun down at 4000 rpm for 15 minutes, and the pellet was resuspended in PBS so that the OD600 ~1.5. The cells were stored in the fridge and used within a week.
For each sample, 75 μL of Dynabeads™ FlowComp™ Flexi Kit were washed twice in 1 mL SH2 buffer (50 mM HEPES pH 7.5, 150 mM NaCl, 1 mM TCEP, and 0.2% BSA) on a magnetic rack.
The beads were then resuspended in 75 μL of SH2 buffer. SH2 domains were thawed quickly and 20 μM of protein was added to the beads. SH2 buffer was added up to 150 μL, and the suspension was incubated for 1 hour at 4 °C while rotating. After 1 hour, the suspension was placed on a magnetic rack and washed twice with 1 mL SH2 buffer.
Preparing the phosphorylated cells
150 μL of prepared cells per sample were spun down for 4000 rpm for 5 minutes at 4 °C.
Kinase screen buffer was prepared (50 mM Tris, 10 mM magnesium chloride, 150 mM sodium chloride; add 2 mM sodium orthovanadate and 1 mM TCEP fresh) and the cells of each sample were resuspended in 100 μL kinase screen buffer. Kinases c-Src, c-Abl, AncSZ, Eph1B were added to a final concentration of 2.5 µM each, creatine phosphate was added to a final concentration of 5 mM, and phosphokinase was added to a final concentration of 50 µg/mL. The suspension was incubated at 37 °C for 5 minutes before ATP was added to a final concentration of 1 mM. This mixture was incubated at 37 °C for 3 hours. After 3 hours, EDTA was added to a final concentration of 25 mM to quench the reaction. The input library control sample was not phosphorylated. These cells were spun down at 4000 rpm for 15 minutes at 4 °C. The cells were then resuspended in 100 µL of SH2 buffer + 0.1% BSA. Phosphorylation of the cells was confirmed by labeling with the PY20-PerCP-eFluor 710 pan-phosphotyrosine antibody followed by analysis via flow cytometry.
Enriching for cells displaying high-affinity phosphopeptide ligands
100 μL of phosphorylated cells were mixed with 75 µL SH2-beads for 1 hour at 4 °C while rotating. After 1 hour, samples were placed on a magnetic rack, supernatant was removed and 1 mL SH2 buffer was added to each sample. This was rotated for 30 minutes at 4 °C to wash the beads.
After this wash, the beads were placed on a magnetic rack, the supernatant was removed and 50 µL […]
Preparing sequencing samples & deep sequencing
All SH2-selected samples and the input library control were resuspended in 50 µL MilliQ water, vortexed, and boiled for 10 minutes at 100 °C. The boiled lysate was used as the DNA template in a PCR reaction using the TruSeq-eCPX-Fwd and TruSeq-eCPX-Rev primers. The mixture resulting from this PCR was used directly into a second PCR to append Illumina sequencing adaptors and Supplementary Information - page 5 of 18
For the molecule `CC[C@H](C)[C@H](NC(=O)[C@@H](NC(=O)[C@H](C)NC(=O)[C@H](Cc1ccc(OP(=O)(O)O)cc1)NC(=O)[C@@H](NC(=O)[C@@H]1CCCN1C(=O)[C@H](CCC(=O)O)NC(=O)[C@@H]1CCCN1C(=O)[C@H](CO)NC(=O)[C@@H](NC(C)=O)C(C)C)[C@@H](C)CC)[C@@H](C)O)C(=O)N[C@@H](CC(=O)O)C(=O)N[C@@H](CC(=O)O)C(=O)N[C@@H](CC(C)C)C(N)=O`, the EC50 worked out at 39.4 µM.

`CC(=O)N[C@@H](CO)C(=O)N[C@H](C(=O)NCC(=O)N[C@@H](CO)C(=O)N[C@H](C(=O)N[C@@H](CC(=O)O)C(=O)N[C@@H](Cc1ccc(OP(=O)(O)O)cc1)C(=O)N[C@@H](CC(C)C)C(=O)N[C@@H](C)C(=O)N[C@@H](CC(C)C)C(=O)N[C@@H](CC(=O)O)C(=O)N[C@@H](Cc1ccccc1)C(=O)N[C@@H](CCC(N)=O)C(N)=O)C(C)C)[C@@H](C)O` had a concentration for a half-maximal effect (EC50) of 8.52 µM. With `CC[C@H](C)[C@H](NC(=O)[C@H](Cc1ccc(OP(=O)(O)O)cc1)NC(=O)[C@H](CC(N)=O)NC(=O)[C@H](CC(C)C)NC(=O)CNC(=O)[C@H](CC(N)=O)NC(=O)[C@H](CCC(=O)O)NC(=O)[C@H](CC(C)C)NC(C)=O)C(=O)N[C@@H](CC(=O)O)C(=O)N[C@@H](CC(C)C)C(=O)N[C@@H](CC(=O)O)C(=O)N[C@@H](CC(C)C)C(=O)N[C@H](C(N)=O)C(C)C` the figure was 1.75 µM; with `CC[C@H](C)[C@H](NC(=O)[C@H](CC(N)=O)NC(=O)[C@@H](NC(=O)[C@H](Cc1ccc(OP(=O)(O)O)cc1)NC(=O)[C@H](CCC(=O)O)NC(=O)CNC(=O)[C@@H]1CCCN1C(=O)[C@H](CO)NC(=O)[C@H](CCCCN)NC(=O)[C@@H]1CCCN1C(C)=O)C(C)C)C(=O)N[C@@H](CCC(=O)O)C(=O)N[C@@H](Cc1ccccc1)C(=O)NCC(N)=O`, 29.3 µM; with `CSCC[C@H](NC(=O)[C@H](CC(C)C)NC(=O)[C@H](CCC(N)=O)NC(=O)[C@H](C)NC(=O)[C@H](Cc1ccc(OP(=O)(O)O)cc1)NC(=O)[C@H](CC(N)=O)NC(=O)[C@H](CC(C)C)NC(=O)[C@H](C)NC(=O)[C@H](C)NC(=O)[C@H](CCCCN)NC(=O)[C@H](CCCCN)NC(C)=O)C(=O)N[C@@H](Cc1ccccc1)C(=O)N1CCC[C@H]1C(N)=O`, 1.32 µM. As for `CC(=O)N[C@@H](C)C(=O)N[C@@H](CCCCN)C(=O)N[C@@H](CO)C(=O)NCC(=O)N[C@@H](C)C(=O)N[C@H](C(=O)N[C@@H](Cc1ccc(OP(=O)(O)O)cc1)C(=O)N[C@@H](CO)C(=O)N[C@@H](CCC(=O)O)C(=O)N[C@@H](CC(C)C)C(=O)N[C@@H](CC(N)=O)C(=O)N[C@@H](Cc1ccccc1)C(=O)NCC(N)=O)C(C)C`, the figure is 233 µM.

Take `CC(=O)N1CCC[C@H]1C(=O)N[C@H](C(=O)N[C@@H](Cc1ccccc1)C(=O)N[C@@H](CO)C(=O)N[C@H](C(=O)N[C@@H](CC(=O)O)C(=O)N[C@@H](Cc1ccc(OP(=O)(O)O)cc1)C(=O)NCC(=O)N[C@@H](CCC(=O)O)C(=O)N[C@@H](CC(C)C)C(=O)N[C@@H](CC(=O)O)C(=O)N[C@@H](Cc1ccccc1)C(=O)N[C@@H](CCC(N)=O)C(N)=O)C(C)C)C(C)C`: the 50% effective concentration (EC50) turned out to be 18.9 µM. As for `CC[C@H](C)[C@H](NC(=O)[C@@H](NC(=O)[C@H](C)NC(=O)[C@H](Cc1ccc(OP(=O)(O)O)cc1)NC(=O)[C@H](CCC(=O)O)NC(=O)[C@@H](NC(=O)[C@H](CCC(N)=O)NC(=O)[C@H](CCC(=O)O)NC(=O)[C@@H]1CCCN1C(=O)[C@@H](NC(C)=O)C(C)C)[C@@H](C)O)[C@@H](C)O)C(=O)N[C@H](C(=O)N[C@@H](Cc1ccccc1)C(=O)N1CCC[C@H]1C(N)=O)C(C)C`, the figure is 5.37 µM; as for `CC[C@H](C)[C@H](NC(=O)[C@H](CC(=O)O)NC(=O)[C@H](C)NC(=O)[C@H](Cc1ccc(OP(=O)(O)O)cc1)NC(=O)[C@H](CCCCN)NC(=O)[C@@H](NC(=O)[C@H](CC(=O)O)NC(=O)CNC(=O)[C@H](CCCCN)NC(=O)[C@H](CCSC)NC(C)=O)C(C)C)C(=O)N[C@@H](CCC(=O)O)C(=O)N[C@@H](CO)C(=O)N[C@@H](CO)C(N)=O`, 90.5 µM.
